Test results: US4602927A, “4-alkylimidazole derivatives and their use as nitrification inhibitors” (BASF Aktiengesellschaft, priority 1983, dated 1986)

system: nitrification; assay: % inhibition of nitrification in soil (ammonium sulfate remaining in loamy sandy soil, Nessler reagent, 420 nm); details: 1 ppm based on moist soil, 50% of maximum water capacity, 28 days at 21° C., 220 mg ammonium sulfate per 200 g soil, versus untreated soil
Experimental: 220 mg of ammonium sulfate were mixed thoroughly with 200 g of a loamy sandy soil whose moisture content had been brought to 50% of the maximum water capacity. The active ingredients, dissolved in 0.2 ml of acetone, were then added in amounts of 1 ppm, based on moist soil. After careful, thorough mixing, and evaporation of the acetone, the soil samples were incubated for 28 days at 21° C., together with the controls without added active ingredient, 1 liter glass vessels covered with aluminum foil to avoid loss of water.
2.5 g of each of the soil samples were then introduced into 100 ml conical flasks, and 22.5 ml of a 0.1N sodium sulfate solution was added. The flask was shaken for 30 minutes, after which the mixture was filtered, and 2.5 ml samples of the soil extracts were mixed with […] of distilled water. To detect the ammonium ions still present in the soil extract, 1.25 ml of Nessler reagent were then added, and the mixture was shaken thoroughly. The color changes were then measured photometrically at a wavelength of 420 nm. The amounts of ammonium sulfate still present in the soil samples were then determined with reference to standard curves obtained by a measurement of solutions containing known amounts of ammonium sulfate. The percentage inhibition of nitrification in the treated soil samples compared with the untreated soil samples (to which only ammonium sulfate had been added) was calculated using the following formula: [formula] a=nitrification rate for ammonium sulfate b=nitrification rate for ammonium sulfate+nitrification inhibitor

Point of comparison: `Cc1ccn(C(=O)NOc2ccccc2)n1` [A, 1-phenoxycarbamyl-3-methylpyrazole, reference compound], “% inhibition of nitrification 4 weeks after the addition of 1 ppm of active ingredient to the soil” value 69%. Against it:
- Cc1ncn(C(=O)Nc2ccc(Cl)c(Cl)c2)c1Cl [Example 4, 1-N-(3,4-dichlorophenyl)-carbamyl-4-methyl-5-chloroimidazole] — higher, 71%
- Cc1ncn(C(=O)Nc2ccccc2)c1Cl [Example 3, 1-N-phenylcarbamyl-4-methyl-5-chloroimidazole] — higher, 85%
- CNC(=O)n1cnc(C)c1Cl [Example 1, 1-N-methylcarbamyl-4-methyl-5-chloroimidazole] — higher, 94%
